Values quoted from earlier work as cited in paper PMC9063426, “MAP kinases differentially bind and phosphorylate NOS3 via two unique NOS3 sites” (FEBS Open Bio, 2022).
Where no end group is shown, it is not given here.

How the values were obtained:
[1] = test system: NOS3; settings: endothelial cells, inhibition and dominant negative experiments, via S114 phosphorylation; ref [10]; cited from earlier work
[2] = test system: ERK-NOS3 complexes; set-up: method as in PMID 10899167; settings: BAECs treated with bradykinin; ref [9]; cited from earlier work

Substance | cellular NO production [1] | effect on ERK-NOS3 complexes [2]
JNK2: JNK2, shown to inhibit cellular NO production | inhibited cellular NO production | 
RPPGFSPFR [bradykinin] |  | caused ERK to disassociate from NOS3 complexes and over time the complex reassociated
